From patent US20240156800A1, “EP300 DEGRADER AND USES THEREOF IN NEUROBLASTOMA” (DANA-FARBER CANCER INSTITUTE, INC., priority 2021, published 2024)
Entries after “also recorded” stand apart in the source; their conditions may differ. Where two headings read alike, the source gives them in different places.

What was measured:
H3K27ac = H3K27ac ChIP-seq with Drosophila spike-in (ChIP-RX) in Kelly cells; format: cell-based, human; details: 500 nM
Protocol: ChIP-seq was performed as previously described for cell lines (Durbin et al. Nat. Genet. 50:1240-6 (2018)). The following antibodies were used for ChIP: EP300 (Abcam, ab10485), CBP (#7389, Cell Signaling Technology®), TFAP2β (#2509, Cell Signaling Technology®), ASCL1 (sc-374104, Santa Cruz Biotechnology) and H3K27ac (Abcam ab4729). For each ChIP, 10 μg of antibody was added to 3 ml of sonicated nuclear extract. Illumina® sequencing, library construction, and ChIP-seq analysis methods were performed as described in Mansour et al. Science 346, 1373-7 (2014) and Sanda et al. Cancer Cell 22:209-21 (2012). Remaining ChIP-seq and assay for transposase-accessible chromatin (ATAC)-sequencing data were extracted from previously published datasets (GSE120074, GSE94822, GSE65664) available through the GEO portal. For experiments involving analysis of quantitative changes in H3K27ac, pellets of neuroblastoma cells were externally spiked in with similarly fixed and processed S2 cells at 1:10 ratio, prior to sonication.
ChIP-RX reads from Kelly cells treated with 500 nM JQAD1 were aligned in multiple steps. Reads were aligned to the dm6 revision of the D. melanogaster reference genome with -k 1 —chunkmbs 256—best to identify spiked-in DNA. Counts of fly reads were determined by counting unique read names in the aligned read file. Remaining non-fly reads were aligned to the hg19 revision of the human reference genome with parameters -k 2 -m 2 -chunkmbs 256 -best -175. Visualization files were constructed using macs 1.4 with parameters -w -S -space=50 -nomodel -shiftsize=200 to generate wiggle files, which were subsequently normalized by the millions of fly-mapped reads in the corresponding sample.
H3K27ac ChIP-RX read coverage of stitched enhancers was quantified using bamToGFF with parameter -t TRUE and divided by the millions of mapped reads, from which read-per-million values from the corresponding input experiment was subtracted. These values were used to create fold-changes during the treatment time-course.

[1] = Maximum tolerated dose testing, daily IP dosing in CD1 mice; format: in vivo
Protocol: (§1) For toxicity studies, four female CD1 mice (Charles River Laboratories) were injected intraperitoneally (IP) with single doses of 10 mg/Kg (R,S)-JQAD1 solubilized in 10% hydroxypropyl β-cyclodextrin (Sigma-Aldrich®) in sterile water. Following injection, blood concentration of (R,S)-JQAD1 was measured by serial measurements of animal serum at time points out to 24 h, by liquid chromatography with tandem mass spectrometry (LC-MS/MS) analysis. Pharmacokinetics were performed at ChemPartner in Shanghai, China, using LC-MS/MS method and pharmacokinetics parameters (Tmax, Cmax, T1/2, AUC, etc.) calculated with WinNonlin® V 6.2 statistics software (Pharsight Corporation) using a noncompartmental model. For maximally tolerated dose (MTD) testing, six female CD1 mice were treated with daily IP doses of (R,S)-JQAD1 at 10, 20, or 40 mg/kg. Animals were monitored for animal weight, grooming and behavior daily without noted effects. […] Animal weights, behavior and grooming were monitored daily, for a total of 21 days. […] Blood samples were obtained by retro-orbital puncture and blood analyzed at the Small Animal Imaging Facility at Beth Israel Deaconess Medical Center (Boston, MA), on a Hemavet® 9500FS (Drew Scientific) for blood counts, creatinine, AST, ALT, ALP, GGTP, and BUN measurements.

His-tagged CRBN = His-tagged CRBN (Homo sapiens, UniProt Q96SW2); assay: AlphaLISA assay with biotinylated pomalidomide and His-tagged CRBN; format: binding; details: competition with biotinylated pomalidomide
His-tagged CRBN, sequence (Q96SW2 whole entry): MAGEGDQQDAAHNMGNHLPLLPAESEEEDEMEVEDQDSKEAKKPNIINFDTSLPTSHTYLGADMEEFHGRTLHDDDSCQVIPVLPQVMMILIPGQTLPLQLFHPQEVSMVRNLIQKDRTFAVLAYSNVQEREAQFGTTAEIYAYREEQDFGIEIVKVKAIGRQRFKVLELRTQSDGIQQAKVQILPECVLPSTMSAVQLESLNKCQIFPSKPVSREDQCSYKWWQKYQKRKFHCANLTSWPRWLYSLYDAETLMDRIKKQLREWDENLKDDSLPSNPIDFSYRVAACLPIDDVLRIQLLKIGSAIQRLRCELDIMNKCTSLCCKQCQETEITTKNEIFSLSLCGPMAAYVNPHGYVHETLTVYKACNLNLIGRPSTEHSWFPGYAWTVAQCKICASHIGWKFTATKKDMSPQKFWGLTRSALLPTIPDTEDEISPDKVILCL
His-tagged CRBN, sequence (Q16531 whole entry partner): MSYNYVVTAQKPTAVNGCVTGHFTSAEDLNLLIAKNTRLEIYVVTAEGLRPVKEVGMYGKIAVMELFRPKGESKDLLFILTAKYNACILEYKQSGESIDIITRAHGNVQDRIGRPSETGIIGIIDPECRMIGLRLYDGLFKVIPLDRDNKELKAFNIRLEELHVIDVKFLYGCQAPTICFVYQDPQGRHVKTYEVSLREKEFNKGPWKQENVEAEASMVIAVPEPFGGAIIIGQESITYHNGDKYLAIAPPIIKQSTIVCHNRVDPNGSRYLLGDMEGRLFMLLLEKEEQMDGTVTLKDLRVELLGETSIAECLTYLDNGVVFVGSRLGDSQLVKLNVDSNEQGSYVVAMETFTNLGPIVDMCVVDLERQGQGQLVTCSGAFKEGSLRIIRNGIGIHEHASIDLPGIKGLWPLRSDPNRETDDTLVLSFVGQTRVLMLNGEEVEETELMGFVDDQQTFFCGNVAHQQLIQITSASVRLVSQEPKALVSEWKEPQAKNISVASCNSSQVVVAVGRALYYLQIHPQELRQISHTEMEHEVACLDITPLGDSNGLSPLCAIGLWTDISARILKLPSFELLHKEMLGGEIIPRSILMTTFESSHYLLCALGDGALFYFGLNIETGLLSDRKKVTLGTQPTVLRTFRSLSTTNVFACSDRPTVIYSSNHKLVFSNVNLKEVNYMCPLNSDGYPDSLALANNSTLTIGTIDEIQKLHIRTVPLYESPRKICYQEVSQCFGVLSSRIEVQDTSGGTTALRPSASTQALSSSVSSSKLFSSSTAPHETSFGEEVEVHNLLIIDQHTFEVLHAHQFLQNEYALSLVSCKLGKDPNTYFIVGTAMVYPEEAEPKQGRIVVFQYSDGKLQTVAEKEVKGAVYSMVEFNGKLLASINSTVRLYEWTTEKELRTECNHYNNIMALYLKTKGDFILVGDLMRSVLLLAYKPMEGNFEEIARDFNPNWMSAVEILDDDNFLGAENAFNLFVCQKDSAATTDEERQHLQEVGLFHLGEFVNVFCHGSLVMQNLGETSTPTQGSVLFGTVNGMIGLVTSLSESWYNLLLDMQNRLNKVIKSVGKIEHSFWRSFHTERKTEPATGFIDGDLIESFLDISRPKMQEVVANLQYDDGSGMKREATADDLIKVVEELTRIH
Protocol: To determine whether JQAD1 interacts with the E3 ligase receptor CRBN, the AlphaLISA® platform was used to perform AlphaLISA® fluorescent assays using biotinylated pomalidomide bound to beads and His-tagged CRBN (Yasgar et al. Methods Mol. Biol. 1439:77-98 (2016)). […] Next, biotinylated JQAD1 (Biotin-JQAD1, Scheme 2) was synthesized and incubated with Kelly cell lysates, followed by streptavidin-based purification. […] PROTAC®s may acquire preferential specificity for one of two possible target enzymes due to restricted three-dimensional interactions, as noted in Burslem and Crews, Cell 181:102-14 (2020).
Assays were performed with minimal modifications from the manufacturer's protocol (PerkinElmer®, USA). Briefly, a 2× solution of components with final concentrations of CRBN-DDB1 at 50 nM, Ni-coated Acceptor Beads at 20 μg/ml, and 15 nM biotinylated-pomalidomide were added in […] to 384-well plates (AlphaPlate-384, PerkinElmer®, USA). 100 nL of compound in DMSO from stock plates were added by pin transfer using a Janus Workstation (PerkinElmer®, USA). Streptavidin-coated donor beads (20 μg/ml final) were added to the solution, followed by incubation at room temperature for 1 hour, and reading on an Envision 2104 (PerkinElmer®, USA), by the manufacturer's protocol.

EP300 = target: T1, EP300 (Mus musculus, UniProt B2RWS6); assay: Immunohistochemistry of EP300 in liver of Crbn ILE391VAL knockin mice; format: in vivo; details: 40 mg/Kg IP daily, 14 days
T1 construct: from tissue; host or cells: liver of Balb/c Crbn^ILE391VAL knock-in mice
T1 sequence (B2RWS6 whole entry): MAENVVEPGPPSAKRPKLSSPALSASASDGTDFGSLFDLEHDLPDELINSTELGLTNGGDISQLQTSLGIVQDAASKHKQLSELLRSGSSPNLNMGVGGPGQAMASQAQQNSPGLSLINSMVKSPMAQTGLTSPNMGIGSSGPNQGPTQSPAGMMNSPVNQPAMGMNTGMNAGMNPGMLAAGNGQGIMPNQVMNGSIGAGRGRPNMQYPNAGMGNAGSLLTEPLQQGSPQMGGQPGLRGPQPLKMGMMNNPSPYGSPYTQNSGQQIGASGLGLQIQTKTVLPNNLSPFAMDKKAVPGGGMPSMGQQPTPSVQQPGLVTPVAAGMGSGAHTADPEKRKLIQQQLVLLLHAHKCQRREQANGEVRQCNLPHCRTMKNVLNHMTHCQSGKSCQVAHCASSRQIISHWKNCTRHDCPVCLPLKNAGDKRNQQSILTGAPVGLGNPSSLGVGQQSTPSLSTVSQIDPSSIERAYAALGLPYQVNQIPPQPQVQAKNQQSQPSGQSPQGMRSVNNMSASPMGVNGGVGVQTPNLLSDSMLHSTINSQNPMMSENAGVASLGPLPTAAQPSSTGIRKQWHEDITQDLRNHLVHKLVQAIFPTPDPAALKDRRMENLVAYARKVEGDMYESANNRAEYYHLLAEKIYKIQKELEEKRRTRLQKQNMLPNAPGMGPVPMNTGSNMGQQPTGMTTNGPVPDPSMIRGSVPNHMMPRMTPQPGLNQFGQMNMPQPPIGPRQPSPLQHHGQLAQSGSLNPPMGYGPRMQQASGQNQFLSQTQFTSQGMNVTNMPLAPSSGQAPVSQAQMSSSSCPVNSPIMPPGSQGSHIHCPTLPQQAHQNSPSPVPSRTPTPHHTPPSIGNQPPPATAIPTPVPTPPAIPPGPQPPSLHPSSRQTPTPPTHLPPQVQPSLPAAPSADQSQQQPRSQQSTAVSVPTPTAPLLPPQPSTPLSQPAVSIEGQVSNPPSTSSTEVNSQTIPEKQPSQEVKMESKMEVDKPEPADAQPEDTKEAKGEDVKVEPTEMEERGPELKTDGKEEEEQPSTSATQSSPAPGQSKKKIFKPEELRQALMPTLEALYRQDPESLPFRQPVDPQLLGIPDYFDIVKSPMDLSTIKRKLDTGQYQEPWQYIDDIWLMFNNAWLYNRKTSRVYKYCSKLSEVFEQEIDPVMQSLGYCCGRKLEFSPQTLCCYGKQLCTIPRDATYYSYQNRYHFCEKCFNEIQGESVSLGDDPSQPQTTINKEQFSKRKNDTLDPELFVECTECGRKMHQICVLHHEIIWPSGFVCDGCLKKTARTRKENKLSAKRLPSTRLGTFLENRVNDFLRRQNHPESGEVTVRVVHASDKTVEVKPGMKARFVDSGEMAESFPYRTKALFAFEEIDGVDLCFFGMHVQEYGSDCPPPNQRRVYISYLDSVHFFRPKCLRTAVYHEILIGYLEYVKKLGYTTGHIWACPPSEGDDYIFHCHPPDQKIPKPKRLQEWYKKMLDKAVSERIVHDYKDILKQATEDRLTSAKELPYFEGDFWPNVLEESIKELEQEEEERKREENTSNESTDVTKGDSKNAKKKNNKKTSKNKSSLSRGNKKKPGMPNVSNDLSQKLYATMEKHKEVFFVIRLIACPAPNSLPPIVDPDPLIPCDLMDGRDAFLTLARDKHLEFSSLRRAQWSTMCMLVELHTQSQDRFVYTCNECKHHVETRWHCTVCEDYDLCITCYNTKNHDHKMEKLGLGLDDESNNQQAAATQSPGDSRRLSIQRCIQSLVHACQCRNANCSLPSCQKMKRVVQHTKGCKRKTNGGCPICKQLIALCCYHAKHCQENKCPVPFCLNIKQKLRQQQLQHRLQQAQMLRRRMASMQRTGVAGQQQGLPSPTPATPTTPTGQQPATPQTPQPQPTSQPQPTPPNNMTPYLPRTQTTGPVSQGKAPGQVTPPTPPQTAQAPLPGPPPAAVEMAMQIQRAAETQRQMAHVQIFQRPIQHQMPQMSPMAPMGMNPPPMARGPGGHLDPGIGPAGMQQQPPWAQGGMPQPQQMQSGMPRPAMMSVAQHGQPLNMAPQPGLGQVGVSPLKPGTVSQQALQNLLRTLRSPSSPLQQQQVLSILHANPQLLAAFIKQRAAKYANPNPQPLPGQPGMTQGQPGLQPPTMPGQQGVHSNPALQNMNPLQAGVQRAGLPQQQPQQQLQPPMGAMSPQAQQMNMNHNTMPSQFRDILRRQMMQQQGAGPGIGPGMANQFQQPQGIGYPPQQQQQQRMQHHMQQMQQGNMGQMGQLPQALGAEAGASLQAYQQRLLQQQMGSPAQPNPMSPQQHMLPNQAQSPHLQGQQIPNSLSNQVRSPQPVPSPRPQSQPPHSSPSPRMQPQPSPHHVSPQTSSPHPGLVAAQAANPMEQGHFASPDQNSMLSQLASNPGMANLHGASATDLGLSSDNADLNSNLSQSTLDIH
Protocol: as §1, with “measurements. […]” for “measurements.”

[2] = Pharmacokinetic analysis after a single intraperitoneal dose in CD1 mice; format: in vivo, mouse; details: 10 mg/Kg single IP dose, murine serum
Protocol: For toxicity studies, four female CD1 mice (Charles River Laboratories) were injected intraperitoneally (IP) with single doses of 10 mg/Kg (R,S)-JQAD1 solubilized in 10% hydroxypropyl β-cyclodextrin (Sigma-Aldrich®) in sterile water. Following injection, blood concentration of (R,S)-JQAD1 was measured by serial measurements of animal serum at time points out to 24 h, by liquid chromatography with tandem mass spectrometry (LC-MS/MS) analysis. Pharmacokinetics were performed at ChemPartner in Shanghai, China, using LC-MS/MS method and pharmacokinetics parameters (Tmax, Cmax, T1/2, AUC, etc.) calculated with WinNonlin® V 6.2 statistics software (Pharsight Corporation) using a noncompartmental model. For maximally tolerated dose (MTD) testing, six female CD1 mice were treated with daily IP doses of (R,S)-JQAD1 at 10, 20, or 40 mg/kg. Animals were monitored for animal weight, grooming and behavior daily without noted effects. For MTD testing in humanized CRBN knockin (Balb/c CRBN^ILE391VAL) (Jackson Laboratories), 6 mice per treatment group were treated with either vehicle control or (R,S)-JQAD1 at 40 mg/kg/day by IP injection. Animal weights, behavior and grooming were monitored daily, for a total of 21 days. At day 14, three mice per treatment group were sacrificed and tissues fixed for immunohistochemistry. Blood samples were obtained by retro-orbital puncture and blood analyzed at the Small Animal Imaging Facility at Beth Israel Deaconess Medical Center (Boston, MA), on a Hemavet® 9500FS (Drew Scientific) for blood counts, creatinine, AST, ALT, ALP, GGTP, and BUN measurements.

In the case of `C[C@H](N(Cc1ccc(F)cc1)C(=O)CN1C(=O)O[C@@]2(CCc3cc(NC(=O)CCCCCCCCCCCNc4ccc5c(c4)C(=O)N(C4CCC(=O)NC4=O)C5=O)ccc32)C1=O)C(F)(F)F` (stereo partly drawn) [JQAD1, 12-((2-(2,6-dioxopiperidin-3-yl)-1,3-dioxoisoindolin-5-yl)amino)-N-((R)-3′-(2-((4-fluorobenzyl)((S)-1,1,1-trifluoropropan-2-yl)amino)-2-oxoethyl)-2′,4′-dioxo-2,3-dihydrospiro[indene-1,5′-oxazolidin]-5-yl)dodecanamide], the “H3K27ac signal at 6 h versus 0 h” value (H3K27ac; 6 h) was “no consistent change in acetylation”, the “H3K27ac signal genome-wide at 24 h” value (H3K27ac; 24 h) was “general loss of H3K27ac signal genome-wide, which was most pronounced at densely acetylated super-enhancers” and the “global suppression of all enhancers (H3K27ac marked sites)” value (H3K27ac; 24 h versus untreated) was “approximately 2 fold”. The “tolerability / animal weight” value ([1]; daily IP at increasing doses (10, 20, 40 mg/kg), CD1 mice) was “well tolerated with no signs of animal weight loss; also recorded: no effect on animal weight”, the “maximal dosage for single-dose IP administration without evident toxicity” value ([1]; mouse, IP) was 40 mg/kg and the “interaction with CRBN” value (His-tagged CRBN) was “efficiently interacted with CRBN”. For the same compound, the “EP300 protein expression in liver” value (EP300) was “reduced EP300 protein expression levels in the liver cell nuclei”, the half-life [2] was 13.3 (+/−3.37) h and the Cmax ([2]; female, mouse) was 7 µM. The half-life ([2]; female, mouse, read-out: half-life (converted)) was 13.3 h.
